Test results published in patent publication US20100324017A1, “ACYLGUANIDINE DERIVATIVE” (priority 2007, published 2010).

What was measured:
[1] = tested on: MAP-induced overactivity; experiment: MAP (methane phetamine)-induced overactivity in mice, kinetic momentum by infrared sensor; format: in vivo; conditions: mouse, oral, MAP 1 mg/kg i.p., total 60 minutes, P<0.05
Experimental: (§1) Evaluation of Various Drugs Relative to a Drug for Increasing the Kinetic Momentum of Mice (Methane Phetamine, MK-801) (Method for Measuring a Kinetic Momentum by Discharge of an Infrared Ray)
(§2) The effect of improving the positive symptoms and the negative symptoms of schizophrenia by the compound (I) was evaluated by measuring the kinetic momentum that had been […] with administration of the compound in a model causing the symptoms by methane phetamine (which is hereinafter simply referred to as MAP) and MK-801.
(§3) Species: Male ICR mouse/number of animals (number of animals per group): 8 to 12 animals per group
(§4) The animal was left in a laboratory for 1 hour or longer to be acclimated to the environment, and the animal was taken from the feeding cage, orally administered with a compound to be tested, and then returned to the feeding cage. After 30 minutes, it was put into a cage for measurement, and the kinetic momentum of just the compound to be tested was measured. Further, after 30 minutes, the animal was taken out, and intraperitoneally administered with a drug for increasing kinetic momentum (MAP; 1 mg/kg or MK-801; 0.3 mg/kg, all dissolved in physiological saline), and its kinetic momentum was measured for a certain time (60 minutes) using a device for measuring the kinetic momentum by means of an infrared ray sensor (CompACT AMS, Muromachi Kikai Co., Ltd.). Also, the test was carried out under non-fasting.
(§5) The 60 minutes of measurements was classified into three groups: a first half 30 minutes, a second half 30 minutes, and a total 60 minutes. For a normal mouse (a mouse administered with physiological saline) and a mouse administered with the drug for increasing kinetic momentum, a Student's T test was used for evaluation in each interval. For the group administered with the compound to be tested, a solvent (vehicle) group and a Dunnett's T test were carried out and evaluated. For the evaluation, in case where there was a significant (P<0.05) difference for the total 60 minutes, it was considered to be effective.

[2] = tested on: MK-801-induced overactivity; experiment: MK-801-induced overactivity in mice, kinetic momentum by infrared sensor; format: in vivo; conditions: mouse, oral, dose 0.01 mg/kg; MK-801 0.3 mg/kg i.p.; total 60 minutes, P<0.05
Experimental: as §1, §2, §3, §4, §5

[3] = tested on: PCP-induced prepulse inhibition (PPI) disorder; experiment: Disorder of PCP-induced prepulse inhibition (PPI) in a rat; format: in vivo; conditions: oral, PCP 1 mg/kg s.c., % PPI
Experimental: An Improvement Effect for a Disorder of PCP-Induced Prepulse Inhibition (PPI) in a Rat
A startle amplitude occurs in humans to which an sound stimulus has been given, but in healthy human, this startle amplitude is inhibited by the giving of a weak sound stimulus that precedes the sound stimulus. For a patient with schizophrenia, the inhibitory function similarly declined. It is known that when a rat is administered with PCP (phencyclidine), there is a symptom similar to the negative symptom of schizophrenia in humans. Using this model, the improvement effect of the compound (I) for the information processing disorder included in cognitive impairment of schizophrenia was evaluated.
Species: Male Wistar rat/number of the animals (number of animals per group): 12 animals per group
Startle amplitude measuring device for small animals: an SR-LAB ABS system (manufactured by San Diego Instruments)
An animal holder, to which a Plexiglas-made cylinder for animal storage having a diameter of 8.2 cm was attached, was positioned in the upper part of a Plexiglas-made frame in a measurement box. In the measurement box, a sound-insulating treatment and ventilation (FAN) were carried out. Sound was administered by a speaker attached to the 24 cm upper part of the cylinder. The movement of the animals in the cylinder was detected by a transducer attached in the lower part of the frame and recorded by a microcomputer via an interface.
The experiment was initiated after the animals were put into the chamber for measurement and had spent 10 minutes adapting to the measurement environment. Basically, at 35 minutes after the compound to be tested was orally administered, 1 mg/kg of PCP was subcutaneously administered (1 ml/kg). Five minutes later, the rats were put into a chamber for measurement, allowed to adapt for 10 minutes, and the measurement was then initiated. A white noise of 65 dB (for all frequencies, a disordered noise having a constant energy per unit band) used as a background noise was always played through the break periods and the sessions. The three types of trials as shown below were carried out in a random order 10 times for each type with 30 times in total. Each trial was carried out at a pseudo-random interval of 20 to 60 seconds with an average of 40 seconds. A pulse was defined as a white noise of 120 dB, 20 msec, and a prepulse was defined as a white noise of 70, 80 dB, 20 msec.
The startle amplitude of the animal was measured for 100 msec from the initiation of the pulse, and the maximum value was taken as a “maximum startle amplitude (Vmax))”. The “maximum startle amplitude” for the ten times for each of the three types of trials were averaged, and taken as a “startle amplitude (simply referred to as SA)” under the stimulation condition.
The % prepulse inhibition (% PPI) was calculated in the following equation in the PP80 & P trial of 3) above.
% Prepulse inhibition (% PPI)=(Startle amplitude at P-alone trial (SA)−Startle amplitude (SA) at a PP80 & P trial)/Startle amplitude at P alone trial×100
The measured value was expressed as an average value (mean±SE). First, the startle amplitudes (SA) were statistically analyzed. […] For the measured data of % PPI, the normal group and the control group (the group administered with PCP) were compared by a Student t-test, and for the control group and the group administered with the compound to be tested were compared using a Dunnett evaluation. […] The effect of the compound to be tested was assessed with % PPI.

[4] = tested on: water maze learning disorders in old rats; experiment: Water maze learning disorders in old rats; format: in vivo, rat
Experimental: Evaluation of a Drug for Water Maze Learning Disorders in Old Rats
The improvement effect of the compound (I) for dementia was evaluated by a known water maze learning disorder model used as a pathophysiology model.
Specifically, it was evaluated in accordance with the method as described in “J Pharmacol Exp Ther, 1996; 279: 1157-73, Yamazaki M. et al.”.

Compound | inhibition of MAP-induced overactivity ([1]; dose 0.01 mg/kg) | inhibition of MK-801-induced overactivity [2] | improvement of the disorder of PCP prepulse inhibition (PPI) ([3]; dose 0.03 mg/kg) | improvement of the disorder of PCP prepulse inhibition (PPI) ([3]; dose 0.1 mg/kg) | improvement of water maze learning disorders in old rats ([4]; dose 0.01 mg/kg) | improvement of water maze learning disorders in old rats ([4]; dose 0.03 mg/kg) | inhibition of MAP-induced overactivity ([1]; dose 0.003 mg/kg) | improvement of the disorder of PCP prepulse inhibition (PPI) ([3]; dose 0.3 mg/kg)
NC(N)=NC(=O)c1ccc2c3ccccc3n(C3CCOCC3)c2c1 [Example 25] | significantly inhibited | significantly inhibited | significantly improved | significantly improved | significantly improved | significantly improved | – | –
CC(C)n1c2cc(C(=O)N=C(N)N)ccc2c2c(CO)cccc21 [Example 65] | – | significantly inhibited | – | significantly improved | – | – | significantly inhibited | significantly improved
